Literature values as cited in patent publication US20220304955A1 (Nacuity Pharmaceuticals, Inc., priority 2021, published 2022).

Molecular target: T1, glutamate cysteine ligase (GCL, EC 6.3.2.2) (Homo sapiens, UniProt P48506)
T1 sequence (P48506 1-637): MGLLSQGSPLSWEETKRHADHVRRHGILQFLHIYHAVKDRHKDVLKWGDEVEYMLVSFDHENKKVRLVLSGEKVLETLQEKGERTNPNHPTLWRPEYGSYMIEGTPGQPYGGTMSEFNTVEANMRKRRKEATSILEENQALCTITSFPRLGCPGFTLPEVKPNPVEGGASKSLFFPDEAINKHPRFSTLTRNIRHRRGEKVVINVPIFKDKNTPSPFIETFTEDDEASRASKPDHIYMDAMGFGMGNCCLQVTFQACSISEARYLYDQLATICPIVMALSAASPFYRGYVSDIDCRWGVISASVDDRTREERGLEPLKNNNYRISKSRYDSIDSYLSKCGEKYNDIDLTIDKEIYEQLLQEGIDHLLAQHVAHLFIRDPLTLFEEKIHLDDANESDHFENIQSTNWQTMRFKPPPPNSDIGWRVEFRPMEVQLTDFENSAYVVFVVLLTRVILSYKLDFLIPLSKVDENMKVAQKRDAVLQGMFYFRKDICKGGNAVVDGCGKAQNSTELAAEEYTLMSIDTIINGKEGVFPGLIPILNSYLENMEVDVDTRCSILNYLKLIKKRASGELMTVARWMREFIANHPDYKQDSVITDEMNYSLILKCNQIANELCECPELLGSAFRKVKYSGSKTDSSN
T1 sequence (P48507 1-274 partner): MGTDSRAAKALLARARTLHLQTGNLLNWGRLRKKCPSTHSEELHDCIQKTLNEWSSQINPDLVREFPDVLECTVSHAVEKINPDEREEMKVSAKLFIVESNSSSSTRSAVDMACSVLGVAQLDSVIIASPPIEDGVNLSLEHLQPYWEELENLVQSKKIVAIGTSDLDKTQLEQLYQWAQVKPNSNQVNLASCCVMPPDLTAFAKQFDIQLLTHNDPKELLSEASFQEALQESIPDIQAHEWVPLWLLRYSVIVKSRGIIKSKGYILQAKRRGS
Details: read-out: apparent Km; cited from earlier work

With `N[C@@H](CS)C(=O)O` [cysteine, L-cysteine] as the molecule, how does the Km read?
Its Km is 100 to 300 µM.
